{
  "source": "patent US20160242450A1",
  "about": "“Functional-gel Compositions and Methods” (priority 2014, published 2016)",
  "test": "Energy intake and weight loss rodent study, preloads before high fat diet (Experiment 2)",
  "type": "in vivo",
  "details": "mice on high fat diet, daily preload one hour before diet",
  "text": "Fifteen adult female feeder mice were preconditioned for 15 days on a […]. PicoLab Rodent diet 20 was supplemented to […] by adding a mixture of fats consisting of (38% butter, 30% shortening, 23% lard, and 8% canola oil). High fat diet was provided ad libitum. After the pre-conditioning period mice were assigned to one of four groups ([…]) to generate similar mean body weights between groups as described below. Mice were given control or test article preloads one hour prior to receiving ad libitum high fat diet on a daily basis, mice received high fat diet at ad libitum over night (rodent active period of the day) and were fasted during day time hours (the rodent dormant period of the day). Body weights were obtained on Day 15 and Day 30 post treatment initiation and data was used to calculate change in body weight from baseline, Day 0. Mean body weights (FIG. 1) and % change in body weight (FIG. 2) data is provided with corresponding SEM. Partially hydrolyzed collagen (GEL group) test article was hydrated in 10× in hot water then allowed to set to firm gel 4-8° C. overnight. Wheat Flour (FLOU group) and Psyllium (PSY group) test articles were hydrated in water. Wheat Flour was cooked via microwave for 2 min at an 800 Watt setting.",
  "data": [
    {"smiles": "CCCCCCCCCCC[C@@H](C[C@@H]1OC(=O)[C@H]1CCCCCC)OC(=O)[C@H](CC(C)C)NC=O", "note": "[ALLI, Orlistat]", "values": [
      {"measurement": "Body weight change over a 30 day treatment period (FIG. 1, FIG. 2)", "result": "weight loss"}
    ]}
  ]
}
